Legend:
α-chymotrypsin = molecular target: T1, α-chymotrypsin (Bos taurus, UniProt P00766); assay: Inhibition of the serine protease α-chymotrypsin (Succ-Ala-Ala-Pro-Phe-AMC hydrolysis); type: biochemical; conditions: pH 7.5, 0.03 mM substrate
T1 construct: purchased Sigma Chem. Co. C-3142
Procedure: Additionally,because α-chymotrypsin is not a calcium sensitive enzyme and is constituitively active, following addition of inhibitor stocks to the 96 well plates, 100 ul of a 2 fold concentrated stock of enzyme in dilution buffer was first added and the reaction started by addition of 100 ul of a 2 fold concentrated stock of substrate in assay buffer. Substrate hydrolysis was monitored every 5 minutes up to 30 minutes using a Fluoroskan II ([…]).

Cathepsin L = molecular target: T2, Cathepsin L (Homo sapiens, UniProt P07711); assay: Inhibition and rate of inactivation of cathepsin L (Cbz-Phe-Arg-AMC hydrolysis); type: biochemical; conditions: pH 6.0, 0.006 mM substrate, read-out: k2 (second order rate constant of inactivation), B = Cathepsin L
T2 construct: purchased Calbiochem 219402
Procedure: Additionally, the order of reagents added to the plate was altered because both enzymes are constitutively active. Following inhibitor addition to the plates appropriate 2× concentrated stock dilutions of the enzyme preparations were made in assay buffer and 100 ul added to each well. The assay was initiated by addition of 100 ul of 2× concentrated stock dilution of substrate in assay buffer. Substrate hydrolysis was monitored using a Fluroskan II (ex=390 nm; em=460 nm).
Inhibition of enzyme activity was calculated as the percent decrease in the rate of substrate hydrolysis in the presence of inhibitor (.upsilon.i) relative to the rate in its absence (.upsilon.o). Comparison between .upsilon.o and .upsilon.i was made within the linear range for substrate hydrolysis. For screening, compounds were tested at 10 μM. Compounds having ≥50% inhibition at 10 μM were considered active. Apparent second order rate constants were determined from analysis of reaction progress curves under pseudo-first order conditions. Each determination represents the mean of three or more independent single cuvette analyses continually monitored via a Perkin-Elmer LS50B spectrofluorimeter. The rate of inhibition of hydrolysis was obtained by fitting the curve to the exponential equation (1):
y=Ae^-k.spsb.obs·t +B (1)
where y (Pt) is the product formed at time t. A and B are constants. A, the amplitude of the reaction, is given by [Po -P.varies. ] and B (=P.varies.) is the maximal product formed when the reaction is […]. This was corrected for the presence of equation (2): […]

[1] = system: calpain I in Molt-4 cells (α-spectrin breakdown products); assay: Inhibition of calpain activation in intact Molt-4 cells (calpain-generated spectrin breakdown products); type: cell-based; conditions: Homo sapiens, calcium and ionophore (ionomycin), read-out: % Inhibition of BDPs (10 μM)

T2 sequence (P07711 114-333): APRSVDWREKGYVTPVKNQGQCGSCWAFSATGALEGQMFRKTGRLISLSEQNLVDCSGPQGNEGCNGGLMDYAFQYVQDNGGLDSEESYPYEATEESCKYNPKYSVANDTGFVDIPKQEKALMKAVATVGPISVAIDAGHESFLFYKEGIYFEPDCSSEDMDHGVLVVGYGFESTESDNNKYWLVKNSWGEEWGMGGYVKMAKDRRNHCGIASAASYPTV

Row | SMILES | inhibition at 10 µM (α-chymotrypsin) | kinact/KI (Cathepsin L) | inhibition at 10 µM [1]
1 | CC(C)C[C@H](NC(=O)OCc1ccccc1)C(=O)N[C@@H](Cc1ccccc1)C(=O)COn1nnc2ccccc21 [Example 3, 1-[N-[N-Benzyloxycarbonyl-L-leucyl]-3S-4-phenyl-3-amino-2-oxobutyloxy]benzotriazole] | 86% | 100000 M⁻¹ s⁻¹ | 67%
2 | CC[C@H](NC(=O)[C@H](CC(C)C)NC(=O)OCc1ccccc1)C(=O)COn1nnc2ccccc21 [Example 5, 1-[N-[N-Benzyloxycarbonyl-L-leucyl]-3S-3-amino-2-oxopentyloxy] benzotriazole] | 34% | 3e+06 M⁻¹ s⁻¹ | 56%
3 | CC(C)C[C@H](NC(=O)OCc1ccccc1)C(=O)N[C@@H](Cc1ccccc1)C(=O)COn1nnc2cccnc21 [Example 6, 3-[N-[N-Benzyloxycarbonyl-L-leucyl]-3S-4-phenyl-3-amino-2-oxobutyloxy]-3H-triazolo[4,5-b]pyridine] | 81% | 40000 M⁻¹ s⁻¹ | 63%
4 | CC(C)C[C@H](NC(=O)OCc1ccccc1)C(=O)N[C@@H](Cc1ccccc1)C(=O)COn1nnc2ccccc2c1=O [Example 28, 1-[N-[N-Benzyloxycarbonyl-L-leucyl]-3S-4-phenyl-3-amino-2-oxobutyloxy]-3-benzotriazin-4-one] | 82% | 70000 M⁻¹ s⁻¹ | 68%

— patent US5658906A, “Cysteine protease and serine protease inhibitors” (Cephalon, Inc., priority 1996, dated 1997)
